Reference: publication PMC6767236, “Selective Cannabinoid 2 Receptor Agonists as Potential Therapeutic Drugs for the Treatment of Endotoxin-Induced Uveitis” (Molecules, 2019)
In brackets after ≈: the same amount, converted by molar mass. Where two headings read alike, the source gives them in different places.

Experiments:
[1] = target: T1, mouse CB2R (Mus musculus, UniProt P47936); assay: biochemical; type: binding; set-up: bgal (beta-galactosidase fragment of the PathHunter system, named only in the cell line's name); host or cells: CHO-K1 (CHOK1mCB2_bgal)
T1 sequence (P47936 whole entry, the tested form may be a part): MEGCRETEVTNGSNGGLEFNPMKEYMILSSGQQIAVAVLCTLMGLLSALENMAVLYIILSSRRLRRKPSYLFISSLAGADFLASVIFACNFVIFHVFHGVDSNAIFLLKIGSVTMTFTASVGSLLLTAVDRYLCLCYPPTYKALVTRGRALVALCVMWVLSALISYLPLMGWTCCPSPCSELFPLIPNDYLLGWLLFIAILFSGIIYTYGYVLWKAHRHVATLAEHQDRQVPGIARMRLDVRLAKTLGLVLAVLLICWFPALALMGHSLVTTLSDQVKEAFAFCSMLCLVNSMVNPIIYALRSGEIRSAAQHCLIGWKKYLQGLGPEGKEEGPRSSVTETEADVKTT
Description: Membrane fractions were prepared from cultured CHOK1hCB1_bgal, CHOK1hCB2_bgal, and CHOK1mCB2_bgal cells (DiscoveRx, Fremont, CA, USA) as previously described. Protein concentration was determined using the Pierce bicinchoninic acid (BCA) protein assay (Rochford, IL, USA) as per the manufacturer’s instructions.
Radio ligand-binding assays were carried out as described by Souethoudt et al. (2018). Briefly, membranes from cells expressing human CB2R or CB1R or mouse CB2R and the radioligand, [^3H]-CP55940 (Perkin Elmer, Basel, Switzerland) was used. […] Membrane aliquots containing 5 µg (CHOK1hCB1_bgal) or 1 µg (CHOK1hCB2_bgal) of membrane protein in 100 µL assay buffer (50 mMTris-HCl, 5 mM MgCl2, 0.1% bovine serum albumin (BSA), pH 7.4) were incubated at 30 °C for 1 h, in presence of 3.5 nM of [^3H]-CP55940 (CHOK1hCB1_bgal) or 1.5 nM [^3H]-CP55940 (CHOK1hCB2_bgal). The incubation was terminated by rapid filtration performed on glass microfibre (GF/C) filters (Whatman International, Maidstone, UK), presoaked for 30 min with 0.25% polyethyleneimine (PEI), and using a Brandel harvester (Brandel, Gaithersburg, MD, USA). Filter-bound radioactivity was determined by scintillation spectrometry using a Tri-Carb 2900 TR liquid scintillation counter (Perkin Elmer, Boston, MA, USA). For mouse experiments, spleens were collected as previously described and resuspended in 2 mM Tris-EDTA, 320 mM sucrose, 5 mM MgCl2 (pH 7.4). Tissue was homogenized with a Potter homogenizer and centrifuged three times at 1000× g (10 min). The supernatants were centrifuged at 18,000× g (30 min), and the pellets were resuspended in assay buffer (50 mM Tris-HCl, 2 mM Tris-EDTA, 3 mM MgCl2, pH 7.4). These membrane fractions were used in rapid filtration assays with 400 pM of [^3H]-CP55,940. In all receptor binding experiments, nonspecific binding was determined in the presence of 1 µM “cold” agonist.

[2] = target: T1, mouse CB2R; assay: cell-based; type: cell-based; set-up: bgal (beta-galactosidase fragment of the PathHunter system, named only in the cell line's name); host or cells: CHO-K1 (CHOK1mCB2_bgal)
Description: (§1) Assays were carried out using the PathHunter hCB1_bgal, hCB2_bgal, or mCB2_bgal CHOK1 β-arrestin recruitment assay kit (DiscoveRx, Fremont, CA, USA) as previously described. A total of 5000 cells per well were seeded in 384-well plates (Perkin Elmer, MA, USA) containing 20 μL cell culture medium and incubated for 16–18 h at 37 °C and 5% CO2. Cells were stimulated with 10 μM of each agonist or 11 increasing concentrations and incubated for 90 min at 37 °C and 5% CO2. […] The cells were incubated for 90 min at 37 °C and 5% CO2. Compounds in DMSO stock solutions were added using a HP D300 Digital Dispenser (Tecan, Mannedorf, Switzerland). The final concentration of organic solvent per assay point was ≤ 0.1%. The PathHunter Detection mixture was used, according to the manufacturer’s protocol, to determine the β-galactosidase enzyme activity. Detection mixture, 12 μL per well, was added and the plate was incubated for 1 h in the dark at room temperature. Chemiluminescence, indicated as relative light unit, was measured on an EnVision multilabel plate reader (Perkin Elmer, MA, USA).

[3] = Saturation solubility in selected solvents/vehicles; type: physicochemical; conditions: for solubility: thermodynamic from solid; for pH of solution in HP-beta-CD 15% / pH of solution in PEG400 30% / pH of solution in Tocrisolve / pH of solution in Mixed Micelles: solubility sample
Description: (§2) Saturation Solubility (= Thermodynamic Solubility)
(§3) Approximately 8.6 mg test compound per milliliter solvent/vehicle was stirred in HPLC vials (9 × 12 × 32 mm, Waters) at 350 rpm for 15 h. Samples of 10 µL each were taken and microscopically examined for presence of solid particles. If the active pharmacological ingredient (API) dissolved completely, more solid API was added, and stirring was continued for another 15 h. Addition of solid material was repeated up to 96 h or until residual solid particles could be detected. Samples of 0.5 mL were then transferred to Eppendorf Ultrafree filter tubes (Filter: PVDF 0.22 µm) and centrifuged at 14,500 rpm for 10 min. The filtrates were diluted in ethanol and analyzed for content by UPLC. The measurements were also conducted in 0.05 M aqueous phosphate buffer, fasted (FaSSIF), and fed (FeSSIF) simulated gastrointestinal fluid. […]

[4] = cited from earlier work; for PAMPA Peff: * at end of cell: previously published; for PAMPA %Acceptor / PAMPA %Donor / PAMPA %Membrane: * previously published
[5] = target: CYP3A4 (Homo sapiens, UniProt P08684); assay: Cytochrome P450 inhibition assay, CYP3A4; type: in vitro ADME
CYP3A4, sequence (P08684 whole entry): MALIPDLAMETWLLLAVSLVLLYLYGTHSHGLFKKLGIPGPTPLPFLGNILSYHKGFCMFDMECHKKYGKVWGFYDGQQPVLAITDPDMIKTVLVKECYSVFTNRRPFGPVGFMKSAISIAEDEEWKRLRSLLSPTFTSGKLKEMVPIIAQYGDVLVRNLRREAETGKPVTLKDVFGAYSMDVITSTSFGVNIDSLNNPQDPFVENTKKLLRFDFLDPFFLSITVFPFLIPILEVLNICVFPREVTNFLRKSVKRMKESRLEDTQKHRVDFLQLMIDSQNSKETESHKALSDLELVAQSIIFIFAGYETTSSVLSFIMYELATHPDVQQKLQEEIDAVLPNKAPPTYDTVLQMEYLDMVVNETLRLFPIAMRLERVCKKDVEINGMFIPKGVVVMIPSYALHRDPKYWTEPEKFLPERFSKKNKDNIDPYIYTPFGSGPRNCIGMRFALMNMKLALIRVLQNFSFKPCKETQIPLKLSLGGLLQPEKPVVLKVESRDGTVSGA

[6] = Saturation (thermodynamic) solubility in buffer, FaSSIF, FeSSIF; type: physicochemical; conditions: thermodynamic from solid
Description: as §2, §3

[7] = target: T2, human CB2R (Homo sapiens, UniProt P34972); assay: PathHunter β-arrestin recruitment assay, hCB2R; type: cell-based
T2 construct: bgal (beta-galactosidase fragment of the PathHunter system, named only in the cell line's name); host or cells: CHO-K1 (CHOK1hCB2_bgal)
T2 sequence (P34972 whole entry, the tested form may be a part): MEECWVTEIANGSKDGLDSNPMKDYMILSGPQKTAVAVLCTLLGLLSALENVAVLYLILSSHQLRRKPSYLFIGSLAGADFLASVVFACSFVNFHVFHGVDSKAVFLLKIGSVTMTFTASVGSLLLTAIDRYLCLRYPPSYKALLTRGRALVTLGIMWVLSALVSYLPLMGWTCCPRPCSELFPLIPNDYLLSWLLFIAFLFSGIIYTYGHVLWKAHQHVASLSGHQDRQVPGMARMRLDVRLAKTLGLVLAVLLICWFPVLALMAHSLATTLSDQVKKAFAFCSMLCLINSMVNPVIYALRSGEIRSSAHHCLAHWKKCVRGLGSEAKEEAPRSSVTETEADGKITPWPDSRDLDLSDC
Description: as §1

[8] = set-up: method as in earlier work; conditions: mouse, i.v., 0.5-1 mg/kg; * previously published; cited from earlier work
[9] = tested on: human P-gp; conditions: human P-gp; * previously published; cited from earlier work
[10] = aqueous with cosolvent or surfactant or cyclodextrin, in demin. water, n = 1, HU308 crystalline material, read-out: Solubility in HP-beta-CD 15%
[11] = aqueous with cosolvent or surfactant or cyclodextrin, n = 1, RO6871085 as hydrochloride salt, HU308 crystalline material, > = saturation not achieved, read-out: Solubility in Tocrisolve
[12] = oil or lipid, n = 1, RO6871085 as hydrochloride salt, HU308 crystalline material, > = saturation not achieved, read-out: Solubility in MCT (Miglyol 812)
[13] = RO6871085 as hydrochloride salt
[14] = FaSSIF pH 6.5, read-out: Thermodynamic Solubility in FaSSIF (pH 6.5)
[15] = FeSSIF pH 5.5, read-out: Thermodynamic Solubility in FeSSIF (pH 5.5)
[16] = aqueous phosphate buffer pH 6.5, read-out: Thermodynamic Solubility in Aqueous Buffer (pH 6.5)
[17] = [3H]-CP55940 displacement, read-out: mouse CB2R: Ki
[18] = read-out: mouse CB2R: beta arrestin EC50
[19] = pH 6, aqueous with cosolvent or surfactant or cyclodextrin, 200 mM glycocholic acid, 200 mM lecithin in water for injection, pH 6, n = 1, RO6871085 as hydrochloride salt, read-out: Solubility in Mixed Micelles
[20] = species ratio of binding affinity
[21] = aqueous with cosolvent or surfactant or cyclodextrin, in demin. water, n = 1, HU308 crystalline material, read-out: Solubility in PEG400 30%

SMILES | mouse CB2R: beta arrestin efficacy [2] [%] | solubility in Tocrisolve 100 [3] | solubility [3, 10] [µg/mL] | solubility [3, 11] [µg/mL] | solubility [3, 12] [µg/mL] | pH of solution in HP-beta-CD 15% [3] | pH of solution in PEG400 30% [3] | pH of solution in Tocrisolve [3, 13] | PAMPA Peff [4] | PAMPA %Acceptor [4] [%] | PAMPA %Donor [4] [%] | PAMPA %Membrane [4] [%] | solubility thermodynamic [6, 14] [µg/mL] | solubility thermodynamic [6, 15] [µg/mL] | solubility thermodynamic [6, 16] [µg/mL] | EC50 [2, 18] [nM] | Clearance (CL) [8] [mL/min/kg] | Vss [8] [L/kg] | solubility [3, 19] [µg/mL] | pH of solution in Mixed Micelles [3, 13] | also measured
CCCCCCC(C)(C)c1cc(OC)c([C@H]2C=C(CO)[C@H]3C[C@@H]2C3(C)C)c(OC)c1 [HU308, {(1S,4S,5S)-4-[2,6-Dimethoxy-4-(2-methyloctan-2-yl)phenyl]-6,6-dimethylbicyclo[3.1.1]hept-2-en-2-yl}methanol, reference compound] | 76 | considerably lower | 20 (≈ 48.2 µM) | 1600 | > 10300 | 5.7 | 5.1 | 6.1 | 2.53 10*-6 cm/s | 3 | 23 | 74 | 52 (≈ 125 µM) | 60 (≈ 145 µM) | < 1 | – | – | – | – | – | Ki [1]: 223 nM; EC50 [2]: 592 nM; IC50 [5]: > 50000 nM
CCCCCCC(C)(C)c1cc(OC)c(C2=C[C@H]3CC[C@]2(CO)C3(C)C)c(OC)c1 [HU910, {(1S,4R)-2-[2,6-dimethoxy-4-(2-methyloctan-2-yl)phenyl]-7,7-dimethylbicyclo[2.2.1]hept-2-en-1-yl}methanol, reference compound] | 54 | good solvent | 320 (≈ 772 µM) | 19200 | > 87800 | 6.2 | 6.0 | 6.2 | 0.45 10*-6 cm/s | 1 | 42 | 57 | 59 (≈ 142 µM) | 128 (≈ 309 µM) | < 1 | 224 | 2.8 | 0.26 | 4400 | 6.2 | hCB2R Ki/mouse CB2R Ki [1]: 0.2; Ki [1, 17]: 276 nM; hCB1R beta arrestin EC50/hCB2R beta arrestin EC50 [7]: >275; hCB2R β-arrestin EC50/mouse CB2R β-arrestin EC50 [2]: 0.5; AUCINF D [8]: 6060 ng·kg·h/mL/mg; T1/2 [8]: 7.4 h; P-glycoprotein-Mediated Efflux Extraction Ratio human [9]: 2.2; time of stirring to full dissolution in Tocrisolve 100 ([3]; data not shown): approximately 72 h; Solubility in PEG400 30% ([3]; in demin. water, n = 1, HU308 crystalline material): < LOD; IC50 ([5]; read-out: IC50 CYP3A4): 37000 nM
CNC(=O)[C@@H](NC(=O)c1cc(OCC2(C)COC2)c(C2CC2)cn1)C(C)(C)C [RO6851228, 5-Cyclopropyl-N-[(2S)-3,3-dimethyl-1-(methylamino)-1-oxobutan-2-yl]-4-[(3-methyloxetan-3-yl)methoxy]pyridine-2-carboxamide] | – | good solvent | 35500 (≈ 91100 µM) | 15000 | > 19000 | 7.6 | 7.4 | 7.3 | 5.17 10*-6 cm/s | 19 | 79 | 3 | 421 (≈ 1080 µM) | 243 (≈ 624 µM) | 497 (≈ 1280 µM) | > 30000 | 73.8 | 3.1 | > 1600 | 6.6 | hCB2R Ki/mouse CB2R Ki [1, 20]: 45; functional behaviour in hCB2R β-arrestin assay [7]: inverse agonist; hCB2R: beta arrestin efficacy [7]: −18%; EC50 ([7]; read-out: hCB2R: beta arrestin EC50): 3 nM; activity in mouse CB2R β-arrestin assay [2]: not active; AUCINF D [8]: 226 ng·kg·h/mL/mg; T1/2 [8]: 1.08 h; P-glycoprotein-Mediated Efflux Extraction Ratio human [9]: 6.5; solubility [3, 21]: 5900 µg/mL (≈ 15100 µM); IC50 ([5]; read-out: IC50 CYP3A4): > 50000 nM
CC(C)(C)c1nc(N2CC[C@H](O)C2)c2nnn(Cc3nnnn3C3CC3)c2n1 [RO6871304, (3S)-1-{5-tert-butyl-3-[(1-cyclopropyl-1H-tetrazol-5-yl)methyl]-3H-[1,2, 3]triazolo[4,5-d]pyrimidin-7-yl}pyrrolidin-3-ol] | 94 | considerably lower | 7200 (≈ 18700 µM) | 1300 | 2300 | 6.0 | 6.1 | 5.7 | 3.06 10*-6 cm/s | 8 | 62 | 30 | – | – | – | 26 | 36.5 | 0.95 | > 1800 | 6.6 | Ki [1, 17]: 34 nM; hCB2R Ki/mouse CB2R Ki [1, 20]: 0.5; hCB1R beta arrestin EC50/hCB2R beta arrestin EC50 [7]: >1429; solubility [3, 21]: 200 µg/mL (≈ 520 µM); IC50 ([5]; read-out: IC50 CYP3A4): > 50000 nM
